Reference: paper PMC9821961, “Ring-Modified Histidine-Containing Cationic Short Peptides Exhibit Anticryptococcal Activity by Cellular Disruption” (Molecules, 2022)
Values after ≈ are worked out from the molar mass of the structure shown. Where two headings read alike, the source gives them in different places.

How the values were obtained:
[1] = tested on: E. coli; test: microbe, parasite or virus in culture; format: cell-based, Escherichia coli
Source text: (§1) Microbial strains: Microbial strains were procured from National Culture Collection of Pathogenic Fungi (NCCPF) at the Postgraduate Institute of Medical Education & Research (PGIMER), Chandigarh and Microbial Type Culture Collection and Gene bank (MTCC) at the Institute of Microbial Technology (IMTECH), Chandigarh, India. Peptides were screened against five different strains of fungi: viz. Candida albicans (NCCPF400034), Candida glabrata (MTCC 3019), Candida parapsilosis (NCCPF 440002), Candida krusei (NCCPF 440002) and Cryptococcus neoformans (NCCPF250316), and five strains of bacteria: viz. Escherichia coli (MTCC 2961), Staphylococcus aureus (MTCC 3160), Enterococcus faecalis (MTCC 439), Streptococcus pyogenes (MTCC 442) and Pseudomonas aeruginosa (MTCC 3542).
(§2) Growth media: Antifungal susceptibility testing was carried out using standard broth microdilution assays as per the Clinical and Laboratory Standards Institute (CLSI) guidelines for fungi. RPMI 1640 (Sigma), yeast extract, peptone and dextrose (YPED, Himedia) were used as the incubation broths. The cells were diluted to a cell density of 10^3 colony forming unit (CFU/mL) and incubated at 30 °C for 48 h. Furthermore, Muller Hinton (Himedia) media was utilized for bacterial strains and antibacterial activity was evaluated per CLSI guidelines for bacteria. […] Amphotericin B (Himedia, India) and rifampicin (Himedia, India) were used as standard drugs for the evaluation of activity against all the fungal and bacterial strains, respectively.
(§3) The stock solutions of peptides (2 mg/mL) were prepared in DMSO. Specific amounts of peptide from stock solution were added to a 96-well microtiter plate containing 100 μL of growth media and then serially diluted two-fold. A further 100 μL of growth media containing microbial cells were added to each well and incubated at 30–37 °C for 24–48 h. The optical density (OD) was measured at 600 nm using a BioStack Ready (BioTek Instruments, Winooski, VT, USA) microplate reader to analyze microbial growth inhibition, and IC50 and MIC values were calculated. To visualize the growth and inhibition pattern, a solution of 3-(4,5-dimethylthiazol-2-yl)-2,5-diphenyltetrazolium bromide (MTT) in water was added to the plate and incubated for 2–3 h. MTT reacts with the mitochondrial dehydrogenases, which are present only in a viable cell, to give blue colored formazan crystals. Therefore, a darker color indicates a high number of viable cells; however, non-viable cells appear pale or colorless.

[2] = tested on: E. faecalis; test: microbe, parasite or virus in culture; format: cell-based, Enterococcus faecalis
[3] = tested on: P. aeruginosa; test: microbe, parasite or virus in culture; format: cell-based, Pseudomonas aeruginosa
[4] = tested on: S. aureus; test: microbe, parasite or virus in culture; format: cell-based, Staphylococcus aureus
Source text: as §1, §2, §3

[5] = tested on: S. pyogens; test: microbe, parasite or virus in culture; format: cell-based, Streptococcus pyogenes
[6] = tested on: C. glabrata; test: microbe, parasite or virus in culture; format: cell-based, Candida glabrata; conditions: 48 h
Source text: as §1
(§4) Growth media: Antifungal susceptibility testing was carried out using standard broth microdilution assays as per the Clinical and Laboratory Standards Institute (CLSI) guidelines for fungi. RPMI 1640 (Sigma), yeast extract, peptone and dextrose (YPED, Himedia) were used as the incubation broths. The cells were diluted to a cell density of 10^3 colony forming unit (CFU/mL) and incubated at 30 °C for 48 h. Furthermore, Muller Hinton (Himedia) media was utilized for bacterial strains and antibacterial activity was evaluated per CLSI guidelines for bacteria. Bacterial cells were diluted to a cell density of 10^5 CFU/mL and incubated at 37 °C for 24 h. Amphotericin B (Himedia, India) and rifampicin (Himedia, India) were used as standard drugs for the evaluation of activity against all the fungal and bacterial strains, respectively.
as §3

[7] = tested on: C. neoformans; test: microbe, parasite or virus in culture; format: cell-based, Cryptococcus neoformans; conditions: 48 h
Source text: as §1, §4, §3

[8] = tested on: C. albicans; test: microbe, parasite or virus in culture; format: cell-based, Candida albicans; conditions: 48 h
Source text: as §1, §4, §3

[9] = tested on: C. parapsilosis; test: microbe, parasite or virus in culture; format: cell-based, Candida parapsilosis; conditions: 48 h
Source text: as §1, §4, §3

[10] = tested on: C. krusei; test: microbe, parasite or virus in culture; format: cell-based, Candida krusei; conditions: 48 h
Source text: as §1, §4, §3

[11] = tested on: C. neoformans cells; test: Time kill assay; conditions: negative-control peptides, compared with untreated cells, 24 h

Row | SMILES | IC50 [6] | MIC [6] | IC50 ([1]; 48 h) | MIC ([1]; 48 h) | IC50 [7] | MIC [7] | IC50 ([2]; 48 h) | MIC ([2]; 48 h) | IC50 [8] | MIC [8] | IC50 ([3]; 48 h) | MIC ([3]; 48 h) | IC50 [9] | MIC [9] | IC50 ([4]; 48 h) | MIC ([4]; 48 h) | IC50 ([5]; 48 h) | MIC ([5]; 48 h) | IC50 [10] | MIC [10] | further results
1 | CO[C@H]1/C=C/O[C@@]2(C)Oc3c(C)c(O)c4c(O)c(c(/C=N/N5CCN(C)CC5)c(O)c4c3C2=O)NC(=O)/C(C)=C\C=C\[C@H](C)[C@H](O)[C@@H](C)[C@@H](O)[C@@H](C)[C@H](OC(C)=O)[C@@H]1C [Rifampicin, reference compound] | – | – | – | – | – | – | – | – | – | – | – | – | – | – | – | – | – | – | – | – | IC50 ([1]; Escherichia coli): 1 µg/mL (≈ 1.22 µM); MIC ([1]; Escherichia coli): 2 µg/mL (≈ 2.43 µM); IC50 ([2]; Enterococcus faecalis, E. faecalis, read-out: IC50): 1 µg/mL (≈ 1.22 µM); MIC ([2]; Enterococcus faecalis, E. faecalis, read-out: MIC): 2 µg/mL (≈ 2.43 µM); IC50 ([3]; Pseudomonas aeruginosa, P. aeruginosa, read-out: IC50): 16 µg/mL (≈ 19.4 µM); MIC ([3]; Pseudomonas aeruginosa, P. aeruginosa, read-out: MIC): 32 µg/mL (≈ 38.9 µM); IC50 ([4]; Staphylococcus aureus): 2 µg/mL (≈ 2.43 µM); MIC ([4]; Staphylococcus aureus): 4 µg/mL (≈ 4.86 µM); IC50 ([5]; Streptococcus pyogenes, S. pyogens, read-out: IC50): 1 µg/mL (≈ 1.22 µM); MIC ([5]; Streptococcus pyogenes, S. pyogens, read-out: MIC): 2 µg/mL (≈ 2.43 µM)
2 | COC(=O)[C@H](Cc1ncn(Cc2cc(C(C)(C)C)cc(C(C)(C)C)c2)c1I)NC(=O)[C@H](Cc1c[nH]c2ccccc12)NC(=O)OC(C)(C)C [9d] | >35.2 µg/mL | >64.0 µg/mL | – | – | >35.2 µg/mL | >64.0 µg/mL | – | – | >35.2 µg/mL | >64.0 µg/mL | – | – | >35.2 µg/mL | >64.0 µg/mL | – | – | – | – | >35.2 µg/mL | >64.0 µg/mL | Growth inhibition in time-kill profile [11]: did not show any growth inhibition
3 | COC(=O)[C@H](Cc1ncn(Cc2cccc(Cl)c2)c1I)NC(=O)[C@H](Cc1c[nH]c2ccccc12)NC(=O)OC(C)(C)C [9l] | >35.2 µg/mL | >64.0 µg/mL | – | – | 18.59 µg/mL (≈ 26.3 µM) | 33.80 µg/mL (≈ 47.9 µM) | – | – | >35.2 µg/mL | >64.0 µg/mL | – | – | >35.2 µg/mL | >64.0 µg/mL | – | – | – | – | >35.2 µg/mL | >64.0 µg/mL | –
4 | COC(=O)[C@H](Cc1ncn(Cc2cccc(F)c2)c1I)NC(=O)[C@H](Cc1c[nH]c2ccccc12)NC(=O)OC(C)(C)C [9k] | >35.2 µg/mL | >64.0 µg/mL | – | – | 18.16 µg/mL (≈ 26.3 µM) | 32.02 µg/mL (≈ 46.4 µM) | – | – | >35.2 µg/mL | >64.0 µg/mL | – | – | >35.2 µg/mL | >64.0 µg/mL | – | – | – | – | >35.2 µg/mL | >64.0 µg/mL | –
5 | COC(=O)[C@H](Cc1ncn(Cc2ccc(C(F)(F)F)cc2)c1I)NC(=O)[C@H](Cc1c[nH]c2ccccc12)NC(=O)OC(C)(C)C [9g] | >35.2 µg/mL | >64.0 µg/mL | – | – | >35.2 µg/mL | >64.0 µg/mL | – | – | >35.2 µg/mL | >64.0 µg/mL | – | – | >35.2 µg/mL | >64.0 µg/mL | – | – | – | – | >35.2 µg/mL | >64.0 µg/mL | –

Further lines, with some results ahead:

Row | IC50 [6] | MIC [6] | IC50 ([1]; 48 h) | MIC ([1]; 48 h) | IC50 [7] | MIC [7] | IC50 ([2]; 48 h) | MIC ([2]; 48 h) | IC50 [8] | MIC [8] | IC50 ([3]; 48 h) | MIC ([3]; 48 h) | IC50 [9] | MIC [9] | IC50 ([4]; 48 h) | MIC ([4]; 48 h) | IC50 ([5]; 48 h) | MIC ([5]; 48 h) | IC50 [10] | MIC [10] | SMILES | further results
6 | >35.2 µg/mL | >64.0 µg/mL | >35.2 µg/mL | >64.0 µg/mL | 4.87 µg/mL (≈ 7.62 µM) | 8.86 µg/mL (≈ 13.9 µM) | >35.2 µg/mL | >64.0 µg/mL | >35.2 µg/mL | >64.0 µg/mL | >35.2 µg/mL | >64.0 µg/mL | >35.2 µg/mL | >64.0 µg/mL | >35.2 µg/mL | >64.0 µg/mL | >35.2 µg/mL | >64.0 µg/mL | >35.2 µg/mL | >64.0 µg/mL | COC(=O)[C@H](Cc1ncn(Cc2cccc(C(F)(F)F)c2)c1I)NC(=O)[C@@H](N)Cc1c[nH]c2ccccc12 [10e] | –
7 | >35.2 µg/mL | >64.0 µg/mL | >35.2 µg/mL | >64.0 µg/mL | 2.78 µg/mL (≈ 4.72 µM) | 4.64 µg/mL (≈ 7.87 µM) | >35.2 µg/mL | >64.0 µg/mL | >35.2 µg/mL | >64.0 µg/mL | >35.2 µg/mL | >64.0 µg/mL | >35.2 µg/mL | >64.0 µg/mL | >35.2 µg/mL | >64.0 µg/mL | >35.2 µg/mL | >64.0 µg/mL | >35.2 µg/mL | >64.0 µg/mL | COC(=O)[C@H](Cc1ncn(Cc2cccc(F)c2)c1I)NC(=O)[C@@H](N)Cc1c[nH]c2ccccc12 [10k] | –
8 | >35.2 µg/mL | >64.0 µg/mL | >35.2 µg/mL | >64.0 µg/mL | – | 32.11 µg/mL (≈ 53 µM) | >35.2 µg/mL | >64.0 µg/mL | >35.2 µg/mL | >64.0 µg/mL | >35.2 µg/mL | >64.0 µg/mL | >35.2 µg/mL | >64.0 µg/mL | >35.2 µg/mL | >64.0 µg/mL | >35.2 µg/mL | >64.0 µg/mL | >35.2 µg/mL | >64.0 µg/mL | COC(=O)[C@H](Cc1ncn(Cc2cccc(Cl)c2)c1I)NC(=O)[C@@H](N)Cc1c[nH]c2ccccc12 [10l] | –
9 | >35.2 µg/mL | >64.0 µg/mL | >35.2 µg/mL | >64.0 µg/mL | 8.81 µg/mL (≈ 14.4 µM) | 16.02 µg/mL (≈ 26.1 µM) | >35.2 µg/mL | >64.0 µg/mL | >35.2 µg/mL | >64.0 µg/mL | >35.2 µg/mL | >64.0 µg/mL | >35.2 µg/mL | >64.0 µg/mL | >35.2 µg/mL | >64.0 µg/mL | >35.2 µg/mL | >64.0 µg/mL | >35.2 µg/mL | >64.0 µg/mL | COC(=O)[C@H](Cc1ncn(Cc2ccc(C(C)C)cc2)c1I)NC(=O)[C@@H](N)Cc1c[nH]c2ccccc12 [10c] | –
10 | >35.2 µg/mL | >64.0 µg/mL | 35.2 µg/mL (≈ 56.1 µM) | 64.0 µg/mL (≈ 102 µM) | 5.15 µg/mL (≈ 8.21 µM) | – | >35.2 µg/mL | >64.0 µg/mL | >35.2 µg/mL | >64.0 µg/mL | >35.2 µg/mL | >64.0 µg/mL | >35.2 µg/mL | >64.0 µg/mL | 35.2 µg/mL (≈ 56.1 µM) | 64.0 µg/mL (≈ 102 µM) | >35.2 µg/mL | >64.0 µg/mL | >35.2 µg/mL | >64.0 µg/mL | COC(=O)[C@H](Cc1ncn(Cc2ccc(C(C)(C)C)cc2)c1I)NC(=O)[C@@H](N)Cc1c[nH]c2ccccc12 [10b] | –
11 | >35.2 µg/mL | >64.0 µg/mL | >35.2 µg/mL | >64.0 µg/mL | – | 32.05 µg/mL (≈ 46 µM) | >35.2 µg/mL | >64.0 µg/mL | >35.2 µg/mL | >64.0 µg/mL | >35.2 µg/mL | >64.0 µg/mL | >35.2 µg/mL | >64.0 µg/mL | >35.2 µg/mL | >64.0 µg/mL | >35.2 µg/mL | >64.0 µg/mL | >35.2 µg/mL | >64.0 µg/mL | COC(=O)[C@H](Cc1ncn(Cc2cccc(I)c2)c1I)NC(=O)[C@@H](N)Cc1c[nH]c2ccccc12 [10n, Trp-His[1-(3-iodobenzyl)-5-iodo]-OMe] | –
